Experimental data from ChEMBL document CHEMBL1201862, “PubChem BioAssay data set” (2004).
Blank lines part the entries; values can stand above or below the molecule they belong to. Active and inactive are the calls of the source.

Columns and labels:
[1] = target: Luciferin 4-monooxygenase (Photinus pyralis, UniProt P08659); assay: Counter Screen for Luciferase-based Assay Positives. [Related pubchem assays: 620, 618, 411 ]
[2] = tested on: HT-1080; assay: cytotoxicity in HT1080 fibrosarcoma cells, cell-based, fluorescence readout (AID 620); assay type: functional; details: Homo sapiens
[3] = target: Prothrombin (Homo sapiens, UniProt P00734); assay: Thrombin 1536 HTS Dose Response Confirmation. [Related pubchem assays: 1046 (Thrombin 1536 HTS; hits were confirmed in this assay)]; assay type: functional
[4] = target: T1, Calpain-2 catalytic subunit (Sus scrofa, UniProt P43367); assay: pig calpain II inhibitor potency, dose response, biochemical, fluorogenic peptide substrate (AID 1420); assay type: functional
T1 sequence (P43367 whole entry): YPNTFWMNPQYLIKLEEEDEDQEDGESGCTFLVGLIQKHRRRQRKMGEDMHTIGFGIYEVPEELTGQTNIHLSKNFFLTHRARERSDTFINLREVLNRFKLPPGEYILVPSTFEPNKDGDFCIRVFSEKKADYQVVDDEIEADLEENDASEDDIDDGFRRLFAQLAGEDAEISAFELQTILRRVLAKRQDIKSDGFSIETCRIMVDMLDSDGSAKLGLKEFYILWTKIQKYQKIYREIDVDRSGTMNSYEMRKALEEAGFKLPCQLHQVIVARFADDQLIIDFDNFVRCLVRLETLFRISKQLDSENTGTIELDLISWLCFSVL

[5] = inhibitors of intracellular T. cruzi replication, confirmation, NIH3T3 host cells, beta-gal luminescence (AID 2044); assay type: functional, cell-based;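 note: intracellular parasites grown in NIH/3T3 mouse fibroblasts as host cells; luminescent beta-galactosidase reporter signal from transgenic T. cruzi replicating inside host cells; inhibitors lower the luminescence signal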
[6] = cytotoxicity toward NIH3T3 fibroblasts, dose response, counter-screen, cell-based, ATP luminescence, mouse fibroblasts (AID 2010); assay type: functional;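 note: cells exposed to compound for about 90 hours before reading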
[7] = cells
[8] = target: T2, Short transient receptor potential channel 4 (Mus musculus, UniProt Q9QUQ5); assay: mouse TRPC4 channel inhibitors, dose response, cell-based, HEK293 TRPC4/mu-opioid, Fluo-4 calcium (AID 434942); assay type: functional;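 note: potency of inhibitors blocking the TRPC4 calcium response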
T2 sequence (Q9QUQ5 whole entry): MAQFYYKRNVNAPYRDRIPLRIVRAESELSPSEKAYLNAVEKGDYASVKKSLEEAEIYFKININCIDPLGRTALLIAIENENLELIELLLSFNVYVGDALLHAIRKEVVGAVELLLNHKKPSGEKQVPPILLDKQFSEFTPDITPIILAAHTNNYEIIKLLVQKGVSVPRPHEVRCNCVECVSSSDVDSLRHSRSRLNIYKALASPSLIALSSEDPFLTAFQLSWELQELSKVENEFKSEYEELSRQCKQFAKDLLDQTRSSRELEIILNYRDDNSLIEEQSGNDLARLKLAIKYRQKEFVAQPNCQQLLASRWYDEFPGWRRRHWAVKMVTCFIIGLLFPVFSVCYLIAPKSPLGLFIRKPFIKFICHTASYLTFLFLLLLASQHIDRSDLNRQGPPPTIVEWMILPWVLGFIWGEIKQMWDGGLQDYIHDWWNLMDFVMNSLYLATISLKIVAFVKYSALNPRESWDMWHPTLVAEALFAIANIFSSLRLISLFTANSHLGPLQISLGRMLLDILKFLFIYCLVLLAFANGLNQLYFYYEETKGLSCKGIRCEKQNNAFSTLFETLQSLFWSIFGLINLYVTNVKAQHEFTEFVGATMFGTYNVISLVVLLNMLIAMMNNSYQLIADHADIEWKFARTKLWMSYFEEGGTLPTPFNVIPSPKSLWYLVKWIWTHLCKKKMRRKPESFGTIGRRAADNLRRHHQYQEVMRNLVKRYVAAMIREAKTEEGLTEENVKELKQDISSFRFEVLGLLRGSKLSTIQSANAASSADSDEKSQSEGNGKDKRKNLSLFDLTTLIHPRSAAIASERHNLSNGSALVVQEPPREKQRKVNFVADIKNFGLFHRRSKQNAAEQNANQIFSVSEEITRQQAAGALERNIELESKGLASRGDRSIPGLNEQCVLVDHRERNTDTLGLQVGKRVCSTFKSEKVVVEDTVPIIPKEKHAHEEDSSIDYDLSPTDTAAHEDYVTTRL

[9] = target: T2, Short transient receptor potential channel 4; assay: mouse TRPC4 channel activators, dose response, cell-based, HEK293 TRPC4/mu-opioid, Fluo-4 calcium (AID 434937); assay type: functional
[10] = target: T3, Mannose-6-phosphate isomerase (Homo sapiens, UniProt P34949); assay: human PMI inhibitors, high substrate, primary screen, biochemical, fluorescence intensity, high mannose 6-phosphate (AID 1220)
T3 sequence (P34949 whole entry): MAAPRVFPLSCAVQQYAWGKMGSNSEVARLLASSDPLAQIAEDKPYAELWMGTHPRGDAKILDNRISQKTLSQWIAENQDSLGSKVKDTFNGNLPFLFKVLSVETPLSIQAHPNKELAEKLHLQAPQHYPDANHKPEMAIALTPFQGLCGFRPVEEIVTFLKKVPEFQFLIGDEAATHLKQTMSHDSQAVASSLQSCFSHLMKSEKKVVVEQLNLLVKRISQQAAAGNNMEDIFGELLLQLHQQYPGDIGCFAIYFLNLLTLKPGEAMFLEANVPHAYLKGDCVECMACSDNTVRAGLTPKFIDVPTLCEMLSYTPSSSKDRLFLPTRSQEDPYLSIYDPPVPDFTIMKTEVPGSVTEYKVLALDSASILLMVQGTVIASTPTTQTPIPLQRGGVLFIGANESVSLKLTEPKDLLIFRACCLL

[11] = target: T4, Histone-lysine N-methyltransferase NSD2 (Homo sapiens, UniProt O96028); assay type: biochemical
T4 sequence (O96028 whole entry): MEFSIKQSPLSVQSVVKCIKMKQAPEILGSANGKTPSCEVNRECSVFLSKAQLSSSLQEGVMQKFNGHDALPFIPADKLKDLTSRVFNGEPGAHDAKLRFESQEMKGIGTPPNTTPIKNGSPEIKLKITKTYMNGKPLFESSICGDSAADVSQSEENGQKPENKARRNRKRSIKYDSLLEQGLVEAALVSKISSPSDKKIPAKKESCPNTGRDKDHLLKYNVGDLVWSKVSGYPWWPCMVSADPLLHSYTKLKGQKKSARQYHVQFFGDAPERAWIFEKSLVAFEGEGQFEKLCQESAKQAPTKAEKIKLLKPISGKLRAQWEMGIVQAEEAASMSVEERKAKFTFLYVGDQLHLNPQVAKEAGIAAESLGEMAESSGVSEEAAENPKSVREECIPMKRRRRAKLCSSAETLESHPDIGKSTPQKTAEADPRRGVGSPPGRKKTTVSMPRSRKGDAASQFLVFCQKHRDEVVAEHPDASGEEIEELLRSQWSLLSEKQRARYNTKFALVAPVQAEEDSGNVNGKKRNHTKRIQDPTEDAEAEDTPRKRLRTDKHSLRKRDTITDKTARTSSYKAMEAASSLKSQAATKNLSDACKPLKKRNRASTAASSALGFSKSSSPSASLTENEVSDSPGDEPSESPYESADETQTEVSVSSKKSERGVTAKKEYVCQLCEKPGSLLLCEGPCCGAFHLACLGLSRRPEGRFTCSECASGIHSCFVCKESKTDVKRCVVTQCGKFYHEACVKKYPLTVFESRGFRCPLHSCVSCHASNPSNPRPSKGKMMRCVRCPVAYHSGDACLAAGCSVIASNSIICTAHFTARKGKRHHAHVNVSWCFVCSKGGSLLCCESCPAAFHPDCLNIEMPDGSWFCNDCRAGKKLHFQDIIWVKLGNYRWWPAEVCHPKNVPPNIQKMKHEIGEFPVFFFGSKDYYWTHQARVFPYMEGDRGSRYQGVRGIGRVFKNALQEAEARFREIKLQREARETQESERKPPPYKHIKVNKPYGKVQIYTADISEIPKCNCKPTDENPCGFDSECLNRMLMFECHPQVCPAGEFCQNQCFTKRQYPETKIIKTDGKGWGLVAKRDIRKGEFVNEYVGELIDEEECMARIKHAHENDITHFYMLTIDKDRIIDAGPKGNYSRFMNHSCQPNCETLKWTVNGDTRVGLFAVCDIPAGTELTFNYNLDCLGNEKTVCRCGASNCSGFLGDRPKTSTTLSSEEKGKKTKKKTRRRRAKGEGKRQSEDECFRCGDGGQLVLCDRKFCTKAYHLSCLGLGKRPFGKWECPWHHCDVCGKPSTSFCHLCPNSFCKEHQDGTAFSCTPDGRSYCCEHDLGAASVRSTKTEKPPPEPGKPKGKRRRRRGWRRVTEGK

[12] = target: Glyceraldehyde-3-phosphate dehydrogenase (Homo sapiens, UniProt P04406)
Sequence of Glyceraldehyde-3-phosphate dehydrogenase (P04406 whole entry): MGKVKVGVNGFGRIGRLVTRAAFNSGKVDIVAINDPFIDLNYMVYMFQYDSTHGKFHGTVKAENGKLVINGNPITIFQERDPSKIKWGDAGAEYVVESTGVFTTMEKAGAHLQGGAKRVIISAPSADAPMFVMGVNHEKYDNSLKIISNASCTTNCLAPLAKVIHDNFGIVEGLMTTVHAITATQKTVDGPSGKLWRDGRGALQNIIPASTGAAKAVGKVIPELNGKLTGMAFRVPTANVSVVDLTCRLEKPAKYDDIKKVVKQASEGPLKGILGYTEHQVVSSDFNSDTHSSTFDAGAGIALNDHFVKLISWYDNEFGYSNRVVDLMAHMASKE

[13] = target: Cytochrome P450 2C19 (Homo sapiens, UniProt P33261); assay: Cytochrome panel assay with activity outcomes. Panel member name: p450-cyp2c19 Compounds with AC50 equal or less than 10 uM are considered active; assay type: functional; details: read-out: AC50
Sequence of Cytochrome P450 2C19 (P33261 whole entry): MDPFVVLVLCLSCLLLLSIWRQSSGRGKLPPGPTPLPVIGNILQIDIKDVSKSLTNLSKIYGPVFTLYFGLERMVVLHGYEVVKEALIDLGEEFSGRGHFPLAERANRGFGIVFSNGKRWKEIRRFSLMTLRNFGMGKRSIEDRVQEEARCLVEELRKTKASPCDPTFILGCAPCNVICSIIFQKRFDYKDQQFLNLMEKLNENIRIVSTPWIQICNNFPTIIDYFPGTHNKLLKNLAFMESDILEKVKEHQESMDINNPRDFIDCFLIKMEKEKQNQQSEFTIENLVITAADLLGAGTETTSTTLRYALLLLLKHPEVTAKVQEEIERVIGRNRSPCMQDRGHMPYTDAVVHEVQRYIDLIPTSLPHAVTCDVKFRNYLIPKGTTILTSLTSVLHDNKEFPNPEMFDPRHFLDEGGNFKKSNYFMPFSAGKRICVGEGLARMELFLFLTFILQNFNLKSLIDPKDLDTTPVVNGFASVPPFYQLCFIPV

[14] = target: Cytochrome P450 2C9 (Homo sapiens, UniProt P11712)
Sequence of Cytochrome P450 2C9 (P11712 whole entry): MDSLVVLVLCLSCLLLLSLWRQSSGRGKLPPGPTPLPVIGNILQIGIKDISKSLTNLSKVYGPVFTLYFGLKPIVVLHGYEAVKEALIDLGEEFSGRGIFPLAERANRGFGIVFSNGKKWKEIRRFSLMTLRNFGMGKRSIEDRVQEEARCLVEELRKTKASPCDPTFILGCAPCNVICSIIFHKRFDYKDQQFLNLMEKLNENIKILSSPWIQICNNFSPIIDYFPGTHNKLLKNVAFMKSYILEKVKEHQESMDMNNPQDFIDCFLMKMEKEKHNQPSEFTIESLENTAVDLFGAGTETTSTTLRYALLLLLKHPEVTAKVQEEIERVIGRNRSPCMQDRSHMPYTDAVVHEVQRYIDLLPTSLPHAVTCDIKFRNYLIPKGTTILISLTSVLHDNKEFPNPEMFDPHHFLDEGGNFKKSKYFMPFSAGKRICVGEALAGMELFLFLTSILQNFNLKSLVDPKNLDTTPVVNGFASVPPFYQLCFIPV

[15] = target: T5, Coagulation factor XII (Homo sapiens, UniProt P00748); assay type: functional;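 note: activated factor XIIa alpha cleaving a fluorogenic AMC peptide substrate; inhibitor potency from loss of enzyme activity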
T5 sequence (P00748 whole entry): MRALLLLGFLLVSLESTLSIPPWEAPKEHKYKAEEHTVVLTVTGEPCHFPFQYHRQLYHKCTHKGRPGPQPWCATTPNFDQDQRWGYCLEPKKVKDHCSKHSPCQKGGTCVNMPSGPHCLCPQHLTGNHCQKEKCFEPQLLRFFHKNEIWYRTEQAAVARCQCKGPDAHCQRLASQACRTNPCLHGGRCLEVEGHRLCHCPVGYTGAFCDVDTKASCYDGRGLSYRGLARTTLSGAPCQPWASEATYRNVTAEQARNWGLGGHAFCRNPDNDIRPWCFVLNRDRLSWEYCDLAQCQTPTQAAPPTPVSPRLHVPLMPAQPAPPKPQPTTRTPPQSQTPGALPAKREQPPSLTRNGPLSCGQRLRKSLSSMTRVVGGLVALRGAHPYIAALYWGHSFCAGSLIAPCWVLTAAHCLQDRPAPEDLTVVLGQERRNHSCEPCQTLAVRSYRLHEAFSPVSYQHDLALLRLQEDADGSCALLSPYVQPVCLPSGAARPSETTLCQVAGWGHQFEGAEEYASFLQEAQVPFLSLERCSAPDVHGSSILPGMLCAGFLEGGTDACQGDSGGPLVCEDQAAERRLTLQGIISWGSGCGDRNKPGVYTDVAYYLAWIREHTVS

Sequence of Luciferin 4-monooxygenase (P08659 whole entry): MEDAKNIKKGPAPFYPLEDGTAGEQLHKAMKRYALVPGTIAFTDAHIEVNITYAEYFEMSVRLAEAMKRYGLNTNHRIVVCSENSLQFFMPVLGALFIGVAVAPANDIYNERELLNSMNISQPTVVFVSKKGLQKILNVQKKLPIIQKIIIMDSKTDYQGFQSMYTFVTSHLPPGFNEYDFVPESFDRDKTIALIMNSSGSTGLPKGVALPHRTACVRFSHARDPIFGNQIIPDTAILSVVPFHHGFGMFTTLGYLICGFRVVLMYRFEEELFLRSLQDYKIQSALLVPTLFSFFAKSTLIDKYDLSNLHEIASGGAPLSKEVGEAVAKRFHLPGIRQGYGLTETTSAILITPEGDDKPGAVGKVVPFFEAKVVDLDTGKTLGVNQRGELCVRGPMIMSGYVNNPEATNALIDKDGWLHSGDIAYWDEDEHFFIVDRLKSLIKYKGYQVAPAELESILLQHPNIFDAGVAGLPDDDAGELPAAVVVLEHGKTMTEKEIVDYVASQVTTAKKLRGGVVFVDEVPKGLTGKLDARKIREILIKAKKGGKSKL

Structure (SMILES): Cc1ccc(CNc2nc3ccccc3s2)s1
EC50 [1]: 14.4 µM (active)
EC50 [2]: > 50 µM (not active)

IC50 [3]: > 50 µM (not active)
IC50 [4]: 9.51 µM (not active)
Structure (SMILES): CC(C)c1ccc(-c2noc(C3CCCN(C(=O)c4ccc(F)cc4F)C3)n2)cc1 (stereo unspecified)

Structure (SMILES): CC(C)c1ccc2oc(-c3ccc(N)cc3)nc2c1
EC50 [1]: 12.3 µM (active)
EC50 [2]: > 50 µM (not active)

Structure (SMILES): O=C(NCC(c1cccnc1)N1CCN(c2ccc(F)cc2)CC1)OCc1ccccc1 (stereo unspecified)
EC50 [5]: < 0.1 µM (active)
EC50 [6]: > 60 µM (not active)
EC50 [7]: 0.089 µM (active)

IC50 [3]: 3.39 µM (active)
Structure (SMILES): CC(=O)n1nc(-c2ccccc2)nc1NCc1ccc(N(C)C)cc1

Structure (SMILES): OC1CCN(Cc2ccc(OCc3ccccc3)cc2)CC1
EC50 [5]: < 0.1 µM (active)
EC50 [6]: > 60 µM (not active)
EC50 [7]: 0.207 µM (active)

Structure (SMILES): CCOc1ccc(OCc2ccc(C(=O)O)o2)cc1
EC50 [1]: 0.36 µM (active)
EC50 [2]: > 50 µM (not active)

Structure (SMILES): CN(C)CCCN(C(=O)c1ccc(S(=O)(=O)N(C)C)cc1)c1nc2ccc(F)cc2s1
EC50 [5]: < 0.1 µM (active)
EC50 [6]: > 60 µM (not active)
EC50 [8]: 5.96 µM (active)
EC50 [9]: 9.44 µM (active)
EC50 [7]: 0.012 µM (active)

IC50 [3]: > 50 µM (not active)
Structure (SMILES): Cc1ccc(NC(=O)CN(C)C(=O)CCC(=O)c2cccs2)cc1

IC50 [10]: > 50 µM (not active)
AC50 [11]: 3.81 µM (active)
Structure (SMILES): Cn1cc2ccc(N)cc2n1

IC50 [3]: 0.00551 µM (active)
Structure (SMILES): CSc1nc(-c2ccco2)nn1C(=O)CCc1ccccc1

Structure (SMILES): O=C(Nc1ccccc1)C12CC3CC(C1)CC(n1cnc([N+](=O)[O-])n1)(C3)C2
EC50 [5]: < 0.1 µM (active)
EC50 [6]: > 60 µM (not active)
EC50 [7]: 0.06 µM (active)

IC50 [3]: > 50 µM (not active)
Structure (SMILES): O=C(CN1C(=O)CSc2ccccc21)N1CCc2ccccc21

IC50 [3]: > 50 µM (not active)
Structure (SMILES): COc1cccc(C(=O)NNC(=O)Cc2ccc([N+](=O)[O-])cc2)c1

Structure (SMILES): O=C(O)c1cccc(C(=O)Nc2cccc(NC(=O)C3CCCO3)c2)c1 (stereo unspecified)
EC50 [1]: 56.3 µM (active)
IC50 [12]: > 100 µM (not active)
EC50 [2]: > 50 µM (not active)

IC50 [3]: 0.0965 µM (active)
Structure (SMILES): CC(=O)n1nc(-c2ccccc2)nc1NCc1cccs1

IC50 [3]: 0.0293 µM (active)
AC50 [13]: 1.58 µM (inconclusive)
AC50 [14]: 0.631 µM (inconclusive)
Structure (SMILES): O=C(c1ccc([N+](=O)[O-])cc1)n1nc(-c2ccccc2)nc1NCc1ccccc1

Structure (SMILES): Cc1ccc2c(c1)C1CN(C)CCC1N2C(=O)c1ccc(Cl)c(S(=O)(=O)N2CCOCC2)c1 (stereo unspecified)
EC50 [5]: < 0.1 µM (active)
EC50 [6]: > 60 µM (not active)
EC50 [7]: 0.199 µM (active)

IC50 [3]: > 50 µM (not active)
IC50 [15]: > 50 µM (inactive)
Structure (SMILES): NS(=O)(=O)c1ccc(CCNC(=O)Cc2ccccc2[N+](=O)[O-])cc1
